ChEMBL document CHEMBL1201862, “PubChem BioAssay data set” (2004)
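Each compound was tested at five concentrations against cells in 96-well plates for 48 hours. GI50 marks 50% less growth.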 Activity calls are given as the source filed them. Rule as the data show it: active = GI50 up to about 1.1 µM and inactive = higher.

What was measured:
Assay in all cases: NCI-60 cell line screen, 48 h
[1] = tested on: 786-0
[2] = tested on: A549
[3] = tested on: ACHN
[4] = tested on: BT-549
[5] = tested on: CAKI-1
[6] = tested on: COLO 205
[7] = tested on: DU-145
[8] = tested on: EKVX
[9] = tested on: HCC 2998
[10] = tested on: HCT-116
[11] = tested on: HCT-15
[12] = tested on: HL-60
[13] = tested on: HOP-62
[14] = tested on: HOP-92
[15] = tested on: HT-29
[16] = tested on: Hs-578T
[17] = tested on: IGROV-1
[18] = tested on: K562
[19] = tested on: KM12
[20] = tested on: LOX IMVI
[21] = tested on: M14
[22] = tested on: MCF7
[23] = tested on: MDA-MB-231
[24] = tested on: MDA-MB-435
[25] = tested on: MDA-N
[26] = tested on: MOLT-4
[27] = tested on: Malme-3M
[28] = tested on: NCI-H226
[29] = tested on: NCI-H23
[30] = tested on: NCI-H460
[31] = tested on: NCI-H522
[32] = tested on: NCI/ADR-RES
[33] = tested on: OVCAR-3
[34] = tested on: OVCAR-4
[35] = tested on: OVCAR-5
[36] = tested on: OVCAR-8
[37] = tested on: PC-3
[38] = tested on: RPMI-8226
[39] = tested on: RXF 393
[40] = tested on: SF-268
[41] = tested on: SF-295
[42] = tested on: SK-MEL-28
[43] = tested on: SK-MEL-2
[44] = tested on: SK-MEL-5
[45] = tested on: SK-OV-3
[46] = tested on: SN12C
[47] = tested on: SNB-19
[48] = tested on: SNB-75
[49] = tested on: SR
[50] = tested on: SW-620
[51] = tested on: T47D
[52] = tested on: TK-10
[53] = tested on: U-251
[54] = tested on: UACC-257
[55] = tested on: UACC-62
[56] = tested on: UO-31
[57] = tested on: A498
[58] = tested on: CCRF-CEM
[59] = tested on: SF-539

C=CC/N=C(\S)Nc1sc2c(c1C(=O)OCC)CC(C)CC2 (configuration not stated)
GI50 [1]: 33.9 µM (inactive)
GI50 [2]: 24.8 µM (inactive)
GI50 [3]: 22.9 µM (inactive)
GI50 [4]: 35.6 µM (inactive)
GI50 [5]: 36.1 µM (inactive)
GI50 [6]: 18.6 µM (inactive)
GI50 [7]: 30.6 µM (inactive)
GI50 [8]: 28.1 µM (inactive)
GI50 [9]: 18.5 µM (inactive)
GI50 [10]: 24.8 µM (inactive)
GI50 [11]: 31.8 µM
GI50 [12]: 0.849 µM (active)
GI50 [13]: 23.1 µM (inactive)
GI50 [14]: 33 µM (inactive)
GI50 [15]: 21.5 µM (inactive)
GI50 [16]: 36.6 µM (inactive)
GI50 [17]: 33.3 µM (inactive)
GI50 [18]: 33 µM (inactive)
GI50 [19]: 34.8 µM (inactive)
GI50 [20]: 32.9 µM (inactive)
GI50 [21]: 24 µM (inactive)
GI50 [22]: 20.2 µM (inactive)
GI50 [23]: 24.8 µM (inactive)
GI50 [24]: 32 µM (inactive)
GI50 [25]: 30.5 µM (inactive)
GI50 [26]: 28.8 µM (inactive)
GI50 [27]: 21.3 µM (inactive)
GI50 [28]: 21.6 µM (inactive)
GI50 [29]: 32.7 µM (inactive)
GI50 [30]: 20.8 µM (inactive)
GI50 [31]: 20.6 µM (inactive)
GI50 [32]: 31.1 µM (inactive)
GI50 [33]: 20.3 µM (inactive)
GI50 [34]: 35.2 µM (inactive)
GI50 [35]: 30.3 µM (inactive)
GI50 [36]: 36.7 µM (inactive)
GI50 [37]: 21.1 µM (inactive)
GI50 [38]: 23.1 µM (inactive)
GI50 [39]: 26.5 µM (inactive)
GI50 [40]: 35 µM (inactive)
GI50 [41]: 21.1 µM (inactive)
GI50 [42]: 33.1 µM (inactive)
GI50 [43]: 21.2 µM (inactive)
GI50 [44]: 16.3 µM (inactive)
GI50 [45]: 25.4 µM (inactive)
GI50 [46]: 29.9 µM (inactive)
GI50 [47]: 26.3 µM (inactive)
GI50 [48]: 24.3 µM (inactive)
GI50 [49]: 18.9 µM (inactive)
GI50 [50]: 32.8 µM (inactive)
GI50 [51]: 21.4 µM (inactive)
GI50 [52]: 26.3 µM (inactive)
GI50 [53]: 32.6 µM (inactive)
GI50 [54]: 20.8 µM (inactive)
GI50 [55]: 20.6 µM (inactive)
GI50 [56]: 23.7 µM (inactive)

NC(=O)Cc1nc2c(N)ncnc2n1C1OC(CO)C(O)C1O (configuration not stated)
GI50 [1]: > 100 µM (inactive)
GI50 [57]: > 100 µM (inactive)
GI50 [2]: > 100 µM (inactive)
GI50 [3]: > 100 µM (inactive)
GI50 [4]: > 100 µM (inactive)
GI50 [5]: > 100 µM (inactive)
GI50 [58]: > 100 µM (inactive)
GI50 [6]: > 100 µM (inactive)
GI50 [7]: > 100 µM (inactive)
GI50 [8]: > 100 µM (inactive)
GI50 [9]: > 100 µM (inactive)
GI50 [10]: > 100 µM (inactive)
GI50 [11]: > 100 µM
GI50 [12]: > 100 µM (inactive)
GI50 [13]: > 100 µM (inactive)
GI50 [14]: > 100 µM (inactive)
GI50 [15]: > 100 µM (inactive)
GI50 [16]: > 100 µM (inactive)
GI50 [17]: > 100 µM (inactive)
GI50 [18]: > 100 µM (inactive)
GI50 [19]: > 100 µM (inactive)
GI50 [20]: > 100 µM (inactive)
GI50 [21]: > 100 µM (inactive)
GI50 [22]: > 100 µM (inactive)
GI50 [23]: > 100 µM (inactive)
GI50 [24]: > 100 µM (inactive)
GI50 [25]: > 100 µM (inactive)
GI50 [26]: > 100 µM (inactive)
GI50 [27]: > 100 µM (inactive)
GI50 [28]: > 100 µM (inactive)
GI50 [29]: > 100 µM (inactive)
GI50 [30]: > 100 µM (inactive)
GI50 [31]: > 100 µM (inactive)
GI50 [32]: > 100 µM (inactive)
GI50 [33]: > 100 µM (inactive)
GI50 [34]: > 100 µM (inactive)
GI50 [36]: > 100 µM (inactive)
GI50 [37]: > 100 µM (inactive)
GI50 [38]: > 100 µM (inactive)
GI50 [40]: > 100 µM (inactive)
GI50 [41]: > 100 µM (inactive)
GI50 [59]: > 100 µM (inactive)
GI50 [42]: > 100 µM (inactive)
GI50 [43]: > 100 µM (inactive)
GI50 [44]: > 100 µM (inactive)
GI50 [45]: > 100 µM (inactive)
GI50 [46]: > 100 µM (inactive)
GI50 [47]: > 100 µM (inactive)
GI50 [49]: > 100 µM (inactive)
GI50 [50]: > 100 µM (inactive)
GI50 [51]: > 100 µM (inactive)
GI50 [52]: > 100 µM (inactive)
GI50 [53]: > 100 µM (inactive)
GI50 [54]: > 100 µM (inactive)
GI50 [55]: > 100 µM (inactive)
GI50 [56]: > 100 µM (inactive)
